We go through three molecules from publication doi:10.1101/2023.05.23.541938v1, “Exploring the Chain Release Mechanism from an Atypical Apicomplexan Polyketide Synthase” (biorxiv, 2023).

Experiment [1] has as its target T1, TgTR (TgPKS2 thioester reductase domain) (Toxoplasma gondii, UniProt Z9O203Q0F3).
T1 construct: isolated C-terminal thioester reductase (TR) domain of TgPKS2; E. coli codon optimized, expressed in E. coli BL21(DE3) with GroES/EL-TF chaperones
Description: isothermal titration calorimetry. Format: binding. Particulars: 25 mM Tris-HCl pH 7.6, 25 mM NaCl, N fixed at 1. A general note: Isothermal titration calorimetry measures the heat released or taken up as one component is titrated into another.

Experiment [2] concerns the target T1, TgTR (TgPKS2 thioester reductase domain). Description: thermal shift assay (SYPRO orange). Format: binding. The note with it: 1 mM compound, 3 µM TgTR, 10 mM Tris-HCl pH 8.0, 50 mM NaCl, 5% glycerol.
The subject of experiment [3] is TgTR (TgPKS2 thioester reductase domain). The note with it: saturating octanal (2.5 mM) and NADH; N147T in domain numbering.

Broadly, the Kd is the equilibrium constant for the complex coming apart. Read a high Kd as lower affinity. On to `NC(=O)C1=CN([C@@H]2O[C@H](COP(=O)(O)OP(=O)(O)OC[C@H]3O[C@@H](n4cnc5c(N)ncnc54)[C@H](O)[C@@H]3O)[C@@H](O)[C@H]2O)C=CC1` [NADH], for which binding in experiment [1] (no other ligand) was characterised by a dissociation constant (Kd) of 7.64 ± 0.59 µM. In experiment [2], the Tm shift result was “NADH, octanoyl-CoA, and octanal increased the TgTR Tm compared to the DMSO control”.

For the molecule `CCCCCCCC=O` [octanal], the Kd in experiment [1] (excess NADH (1 mM)) came to 146 ± 31 µM. Moreover, the “NADH fluorescence consumption assay, single-point relative rate” value in experiment [3] is reported as “no significant change was observed with octanal”. Further, the Tm shift entry in experiment [2] was “NADH, octanoyl-CoA, and octanal increased the TgTR Tm compared to the DMSO control”.

`CCCCCCCC(=O)SCCNC(=O)CCNC(=O)[C@H](O)C(C)(C)COP(=O)(O)OP(=O)(O)OC[C@H]1O[C@@H](n2cnc3c(N)ncnc32)[C@H](O)[C@@H]1OP(=O)(O)O` [octanoyl-CoA]: in experiment [1] (excess NADH (1 mM)), the affinity, expressed as Kd, was 89.6 ± 3.9 µM. Moreover, the Tm shift entry in experiment [2] was “NADH, octanoyl-CoA, and octanal increased the TgTR Tm compared to the DMSO control”.
